Laboratory results published in patent publication US8071810B2, “C5a receptor antagonists” (Jerini AG, priority 2005, dated 2011).

What follows are molecules tested against T1, human C5a receptor (CD88) (Homo sapiens, UniProt P21730) (assay: C5a induced enzyme (glucosaminidase) release assay in RBL cells expressing the human C5a receptor (Example 28)). Details: RBL cells with human C5aR; read-out: IC50 for the inhibition of C5a induced enzyme release.
T1 construct: expressed in transfected cells; host or cells: rat basophilic leukemia (RBL) cells, stably transfected
T1 sequence (P21730 1-350): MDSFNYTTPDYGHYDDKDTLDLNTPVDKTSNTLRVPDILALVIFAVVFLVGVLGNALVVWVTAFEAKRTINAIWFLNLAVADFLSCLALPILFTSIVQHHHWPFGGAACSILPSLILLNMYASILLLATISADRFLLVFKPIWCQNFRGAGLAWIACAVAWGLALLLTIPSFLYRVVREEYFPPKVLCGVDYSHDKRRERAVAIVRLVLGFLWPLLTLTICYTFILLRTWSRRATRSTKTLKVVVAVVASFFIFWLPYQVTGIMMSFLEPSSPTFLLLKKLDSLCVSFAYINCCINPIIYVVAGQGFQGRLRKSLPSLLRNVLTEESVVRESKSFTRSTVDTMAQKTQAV
Assay type: cell-based
Method: Basophile leukemia cells from rats (RBL), which express the human C5a receptor (CD88), are cultivated in DMEM with 10% fetal calf serum, 100 U/ml penicillin, 100 μg/ml streptomycin and 2 mM glutamin (all constituents are from Biochrome, Berlin) at 37° C. and with 10% CO2 until a confluent layer is obtained. All following details refer to a tissue culture flask with 75 cm^2 surface. The used up medium is removed. The cells are washed with 10 ml PBS (Dulbecco's PBS, Biochrome) and then covered with 3 ml cell dissociation solution (CDS, Sigma). The cells are incubated for 1 minute at room temperature. Then the CDS is removed and the cells are incubated for further 10-15 minutes at 37° C. to detach the cells completely from the flask. 20 μl solution of the compound to be testet are used in the assay. […] The dilution series are prepared in ⅓ or ½ steps. […] The cells are counted and centrifuged (200 g, 10 min). The cell pellet is taken up with pre-heated HAG-CM, and the cell density is adjusted to 2×10^6 Zellen/ml. The cells are incubated for 5 minutes at 37° C. 2.7 μl of a cytochalasin B solution (1000 μg/ml in DMSO, Sigma) are added per ml cell suspension. The Zellen are incubated for another 3 min at 37° C. Then, 75 μl of the cell suspension are added to the 20 μl solution containing the compounds to be tested. […] The cells are again incubated for 10 minutes at 37° C. […] After this the plates are put on ice and centrifuged for 3 minutes at 1200×g and 4° C. […] The plate is incubated for 1 hour at 37° C. […] The IC50 value is determined by solving the four parameter equation y=((A−D)/(1+(x/C)^B))+D.
`CCc1c(N)cc(Cl)c(CC)c1NC(=O)N(c1ccc(C(C)C)cc1)[C@@H](C)c1ccc(C)cc1` [(S)-3-(3-Amino-5-chlor-2,6-diethyl-phenyl)-1-(4-isopropyl-ph] showed an IC50 of 32 nM. `CCc1ccc(Cl)c(CC)c1NC(=O)N(Cc1ccc(OC)cc1)c1ccc(C(C)C)cc1` [compound 24, 3-(3-Chlor-2,6-diethyl-phenyl)-1-(4-isopropyl-phenyl)-1-(4-methoxy-benzyl)-urea] showed an IC50 of 1050 nM. Work on `CCc1ccc(N(Cc2ccc(Cl)cc2)C(=O)Nc2c(CC)c(N)cc(Cl)c2CC)cc1` yielded an IC50 of 86 nM.

Same assay, conditions: inhibition of C5a induced enzyme release, RBL cells with human C5aR; read-out: Activity-range (antagonistic activity, IC50 enzyme release)
Work on `CCc1c(N)cc(Cl)c(CC)c1NC(=O)N(Cc1ccc(Cl)cc1)c1ccc(SC(F)(F)F)cc1` [compound 93, 3-(3-amino-5-chloro-2,6-diethyl-phenyl)-1-(4-chloro-benzyl)-1-(4-trifluoromethylsulfanyl-phenyl)-urea] yielded an IC50 of 200 to 5000 nM. In the case of `CCc1c(N)cc(Cl)c(CC)c1NC(=O)N(CCc1ccc(C)cc1)c1ccc(C(C)C)cc1` [compound 52, 3-(3-amino-5-chloro-2,6-diethyl-phenyl)-1-(4-isopropyl-phenyl)-1-(2-p-tolyl-ethyl)-urea], the IC50 is reported as 200 to 5000 nM. Molecule `CCc1ccc(N(Cc2cnn(CC)c2)C(=O)Nc2c(CC)c(N)cc(Cl)c2CC)cc1` [compound 91, 3-(3-amino-5-chloro-2,6-diethyl-phenyl)-1-(4-ethyl-phenyl)-1-(1-ethyl-1H-pyrazol-4-ylmethyl)-urea] has an IC50 of 200 to 5000 nM. For `CCc1c(N)cc(Cl)c(CC)c1NC(=O)N(Cc1cnc(C)cn1)c1ccc(C(C)C)cc1` [compound 75, 3-(3-amino-5-chloro-2,6-diethyl-phenyl)-1-(4-isopropyl-phenyl)-1-(5-methyl-pyrazin-2-ylmethyl)-urea], the IC50 was 60 to 200 nM. With `CCc1c(N)cc(Cl)c(CC)c1NC(=O)N(c1ccc(OC)cc1)[C@@H](C)c1ccc(Cl)cc1` [compound 92, (S)-3-(3-amino-5-chloro-2,6-diethyl-phenyl)-1-[1-(4-chloro-phenyl)-ethyl]-1-(4-methoxy-phenyl)-urea] the IC50 was 60 to 200 nM. `CCc1c(N)cc(Cl)c(CC)c1NC(=O)N(c1ccc(NC)cc1)C(C)c1ccc2c(c1)ncn2C` (stereo not shown) [compound 138, 3-(3-amino-5-chloro-2,6-diethyl-phenyl)-1-(4-methylamino-phenyl)-1-[1-(1-methyl-1H-benzoimidazol-5-yl)-ethyl]-urea] gave an IC50 of 60 to 200 nM. Work on `COc1ccc(CN(C(=O)Nc2c(C(C)C)cccc2C(C)C)c2ccc(C(C)C)cc2)cc1` [compound 134, 3-(2,6-diisopropyl-phenyl)-1-(4-isopropyl-phenyl)-1-(4-methoxy-benzyl)-urea] yielded an IC50 of 200 to 5000 nM. Work on `COc1ccc(CN(C(=O)Nc2c(C(C)C)ccc(N)c2C(C)C)c2ccc(C(C)C)cc2)cc1` [compound 25, 3-(3-Amino-2,6-diisopropyl-phenyl)-1-(4-isopropyl-phenyl)-1-(4-methoxy-benzyl)-urea] yielded an IC50 of 200 to 5000 nM. `CCc1ccc(N)c(CC)c1NC(=O)N(Cc1ccc(OC)cc1)c1ccc(C(C)C)cc1` [compound 28, 3-(3-amino-2,6-diethyl-phenyl)-1-(4-isopropyl-phenyl)-1-(4-methoxy-benzyl)-urea] was tested, and the IC50 was 200 to 5000 nM. For `CCc1ccc(N(Cc2ccc(N)cc2)C(=O)Nc2c(CC)c(N)cc(Cl)c2CC)cc1` [compound 116, 1-(4-amino-benzyl)-3-(3-amino-5-chloro-2,6-diethyl-phenyl)-1-(4-ethyl-phenyl)-urea], the IC50 was 200 to 5000 nM. `CCc1ccc(N)c(CC)c1NC(=O)N(CC1CCCCC1)c1ccc(C(C)C)cc1` [compound 61, 3-(3-amino-2,6-diethyl-phenyl)-1-cyclohexylmethyl-1-(4-isopropyl-phenyl)-urea] was tested, and the IC50 was 200 to 5000 nM. `CCc1c(N)cc(Cl)c(CC)c1NC(=O)N(Cc1ccccc1)c1ccc(C(C)C)cc1` [compound 43, 3-(3-amino-5-chloro-2,6-diethyl-phenyl)-1-benzyl-1-(4-isopropyl-phenyl)-urea] was tested, and the IC50 was 200 to 5000 nM. For `CCc1c(N)cc(Cl)c(CC)c1NC(=O)N(Cc1ccc(Cl)cc1)c1ccc(OC)c2ccccc12` [compound 115, 3-(3-amino-5-chloro-2,6-diethyl-phenyl)-1-(4-chloro-benzyl)-1-(4-methoxy-naphthaline-1-yl)-urea], the IC50 was 60 to 200 nM. For `CCc1ccc(N(C(=O)Nc2c(C(C)(C)C)ccc(N)c2C)[C@@H](C)c2ccc(Cl)cc2)cc1` [compound 111, (S)-3-(3-amino-6-tert-butyl-2-methyl-phenyl)-1-[1-(4-chloro-phenyl)-ethyl]-1-(4-ethyl-phenyl)-urea], the IC50 was 200 to 5000 nM. `COc1ccc(CN(C(=O)Nc2c(C(C)C)ccc(NC(C)=O)c2C(C)C)c2ccc(C(C)C)cc2)cc1` [compound 27, N-{2,4-diisopropyl-3-[3-(4-isopropyl-phenyl)-3-(4-methoxy-benzyl)-ureido]-phenyl}-acetamide] was tested, and the IC50 was > 5000 nM. `CCc1ccc(N)c(CC)c1NC(=O)N(CCc1ccccc1)c1ccc(C(C)C)cc1` [compound 51, 3-(3-amino-2,6-diethyl-phenyl)-1-(4-isopropyl-phenyl)-1-phenethyl-urea] gave an IC50 of 200 to 5000 nM. `CCc1ccc(CN(C(=O)Nc2c(CC)c(N)cc(Cl)c2CC)c2ccc(C(C)C)cc2)cc1` [compound 35, 3-(3-amino-5-chloro-2,6-diethyl-phenyl)-1-(4-ethyl-benzyl)-1-(4-isopropyl-phenyl)-urea] was tested, and the IC50 was 200 to 5000 nM. `CCc1c(N)cc(Cl)c(CC)c1NC(=O)N(c1ccc(SC)cc1)[C@@H](C)c1ccc(Cl)cc1` [compound 83, (S)-3-(3-amino-5-chloro-2,6-diethyl-phenyl)-1-[1-(4-chloro-phenyl)-ethyl]-1-(4-methylsulfanyl-phenyl)-urea] was tested, and the IC50 was 60 to 200 nM. For `CCc1ccc(N(C(=O)Nc2c(CC)c(N)cc(Cl)c2CC)C2CCc3cc(Cl)ccc32)cc1` (stereo not shown) [compound 104, 3-(3-amino-5-chloro-2,6-diethyl-phenyl)-1-(5-chloro-indane-1-yl)-1-(4-ethyl-phenyl)-urea], the IC50 was 60 to 200 nM. With `CCc1c(N)cc(Cl)c(CC)c1NC(=O)N(Cc1cnc(OC)nc1OC)c1ccc(C(C)C)cc1` [compound 77, 3-(3-amino-5-chloro-2,6-diethyl-phenyl)-1-(2,4-dimethoxy-pyrimidin-5-ylmethyl)-1-(4-isopropyl-phenyl)-urea] the IC50 was 200 to 5000 nM. `CCc1c(N)cc(Cl)c(CC)c1NC(=O)N(Cc1ccc(OC)cc1)c1ccc2c(c1)CCC2` [compound 44, 3-(3-amino-5-chloro-2,6-diethyl-phenyl)-1-indane-5-yl-1-(4-methoxy-benzyl)-urea] showed an IC50 of 200 to 5000 nM. In the case of `CCc1c(N)cc(Cl)c(CC)c1NC(=O)N(c1ccc([S+](C)[O-])cc1)[C@@H](C)c1ccc(Cl)cc1` (stereo partly drawn) [compound 95, (S)-3-(3-amino-5-chloro-2,6-diethyl-phenyl)-1-[1-(4-chloro-phenyl)-ethyl]-1-(4-methanesulfinyl-phenyl)-urea], the IC50 is reported as 200 to 5000 nM. `CCc1ccc(N)c(CC)c1NC(=O)N(c1ccc(C(C)C)cc1)[C@H](C)c1ccc(C)cc1` [compound 68, (R)-3-(3-amino-2,6-diethyl-phenyl)-1-(4-isopropyl-phenyl)-1-(1-p-tolyl-ethyl)-urea] showed an IC50 of 200 to 5000 nM. With `CCNc1ccc(N(Cc2ccc(Cl)cc2)C(=O)Nc2c(CC)c(N)cc(Cl)c2CC)cc1` [compound 136, 3-(3-amino-5-chloro-2,6-diethyl-phenyl)-1-(4-chloro-benzyl)-1-(4-ethylamino-phenyl)-urea] the IC50 was < 60 nM. In the case of `CCc1ccc(N(Cc2ccc(C)cc2)C(=O)Nc2c(CC)ccc(N)c2CC)cc1` [compound 54, 3-(3-amino-2,6-diethyl-phenyl)-1-(4-ethyl-phenyl)-1-(4-methyl-benzyl)-urea], the IC50 is reported as 200 to 5000 nM. For `CCc1ccc(N)c(CC)c1NC(=O)N(Cc1ccccc1OC)c1ccc(C(C)C)cc1` [compound 63, 3-(3-amino-2,6-diethyl-phenyl)-1-(4-isopropyl-phenyl)-1-(2-methoxy-benzyl)-urea], the IC50 was 200 to 5000 nM. `CCc1ccc(N(Cc2ccc(C)nc2)C(=O)Nc2c(CC)ccc(N)c2CC)cc1` [compound 107, 3-(3-amino-2,6-diethyl-phenyl)-1-(4-ethyl-phenyl)-1-(6-methyl-pyridin-3-ylmethyl)-urea] was tested, and the IC50 was 200 to 5000 nM. For `COc1ccc(CN(C(=O)Nc2c(C)ccc3c2CCCN3)c2ccc(C(C)C)cc2)cc1` [compound 40, 1-(4-isopropyl-phenyl)-1-(4-methoxy-benzyl)-3-(6-methyl-1,2,3,4-tetrahydro-chinolin-5-yl)-urea], the IC50 was > 5000 nM.
